Data published in patent US9034914B2, “Pharmaceutical composition comprising rotigotine salts (acid or Na), especially for iontophoresis” (UCB Pharma GmbH, priority 2009, dated 2015).
Structures can show the parent of a compound that is named as a salt. Where two headings read alike, the source gives them in different places. Marks after values point to notes of the source that are not given here. Values belong to the molecule of their own block, whether it stands above or below them.

How the values were obtained:
[1] = passive delivery, patch size 10 cm^2, estimated to deliver 2 mg in 24 h; cited from earlier work
[2] = 20 cm^2 patch containing 10 mg rotigotine hydrochloride, TTS of WO 94/07468; cited from earlier work
[3] = cited from earlier work; for Solubility: adapted from Nugroho et al.
[4] = pH 5; cited from earlier work
[5] = format: in vitro ADME, human; conditions: for steady state flux ± s.d., iontophoresis stage / Mean steady state flux ± sd: 9 h
Experimental: The preparation of human stratum corneum (HSC) was performed according to the method described previously (Nugroho et al., (Nugroho et al., J. Control Release (2005) 103, 393-403) which is incorporated herein by reference. Briefly, within 24 hours after surgical removal of the human skin residual subcutaneous fat was removed. Dermatomed human skin (DHS) was obtained by dermatoming the skin to a thickness of about 300 μm. In order to obtain HSC, DHS was incubated with the dermal side on Whatman paper soaked in a solution of 0.1% trypsin in 150 mM phosphate buffered saline (PBS) pH 7.4 (NaCl: 8 g·L^−1, Na2HPO4: 2.86 g·L^−1, KH2PO4: 0.2 g·L^−1, KCl: 0.19 g·L^−1) overnight at 4° C. and subsequently for 1 hour at 37° C. after which HSC was peeled off from the underlying viable epidermis and dermis. HSC was subsequently washed in a 0.1% trypsin inhibitor solution in Millipore water and several times in water and stored in a desiccator in a N2 environment.
The in vitro transport studies were done by using a 9-channel computer controlled power supply in order to provide a constant direct current (Electronics Department, Gorlaeus Laboratories, Leiden University, The Netherlands) during iontophoresis. The system was equipped with differential input channels per current source enabling on-line measurement of the electric resistance across HSC in each diffusion cell. Ag/AgCl was used as driver electrode pair. All transport experiments were carried out, using a three chamber continuous flow through cell as described elsewhere (Nugroho et al., J. Control Release (2005) 103, 393-403). The donor formulation, buffered with a 10 mM citric buffer, was applied at the anodal side. The cathodal chamber was filled with PBS pH 7.4. The acceptor phase, maintained at 32° C., was continuously perfused with PBS pH 6.2 (NaCl: 8 g·L^−1, KCl: 0.19 g·L^−1, Na2HPO4.2H2O: 0.43 g·L^−1, KH2PO4: 0.97 g·L^−1) at a flow rate of 7.0 ml·h^−1. Unless described elsewhere, the following protocol for the iontophoresis experiments was used: 6 hours of passive diffusion, followed by 9 hours of iontophoresis with a current density of 500 μA·cm^−2 and 5 hours of passive diffusion. Samples were collected every hour with an automatic fraction collector (ISCORetriever IV, Beun De Ronde B V, Abcoude, The Netherlands). The specific conditions of the individual transport studies are described below.
Prior to and at the end of a transport study the pH of donor and acceptor compartment was measured. All samples of the iontophoretic transport studies were analyzed by RP-HPLC using a Superspher® 60 RP-select B, 75 mm-4 mm column (Merck KGaA, Darmstadt, Germany). Rotigotine was detected using a scanning fluorescence detector (Waters™ 474, Millipore, Milford, Mass., USA) at excitation and emission wavelengths of 276 and 302 nm. Acetaminophen was detected using a UV detector (Dual λ Absorbance Detector 2487, Waters, Milford, USA) at a wavelength of 254 nm. Filtered and degassed mobile phase contained 60% H2O (v/v), 40% ACN (v/v) and 0.05% methanesulfonic acid (v/v). The injection volume was 50 μL and the flow rate was set to 1.0 mL·min^−1.
To calculate the steady state flux during passive and iontophoretic transport, the cumulative flux of the transport was plotted as a function of time. The steady state flux was estimated from the linear part of the slope of this plot according to the permeation lag-time method^7. All data are presented as mean±standard deviation (s.d.). When a statistical analysis was performed comparing only 2 groups, a Students t-test was used. When 3 or more groups were compared, a 1-way ANOVA statistical analysis was executed. If the overall p-value was less than 0.05, a bonferonni post-test was applied to compare different groups. For all statistical analysis a significance level of p<0.05 was used. […]

[6] = Maximum (saturation) solubility in 10 mM citric buffer, HPLC assay; format: physicochemical; conditions: for solubility at 48 h: 10 mM citric buffer, thermodynamic from solid
Experimental: In order to compare the maximum solubility of pharmaceutically acceptable salts of rotigotine, e.g. rotigotine.H3PO4, with rotigotine.HCl, the solubility studies of rotigotine.salts were carried out as described by Nugroho et al. (Pharm. Res. 21 (2004), 844-855), which is incorporated herein by reference, who determined the solubility of rotigotine.HCl. Briefly, rotigotine.salt was solubilized in 10 mM citric buffer at pH 4, 5 and 6 with and without the presence of NaCl (at room temperature). Subsequent adjustment of pH in each test tube was performed by alternating adding small quantities of 1M NaOH under continuous shaking and subsequent pH measurements, until the pH of each solution had stabilized at the original buffer value. Each solution was shaken for an additional 48 hours, after which each solution was centrifuged and filtered. The concentration in each solution was determined by HPLC. Room temperature or ambient as used in the present application is to be understood to apply to a range from 18° C. to 25° C., preferred is about 20° C.
The maximum solubilities of rotigotine hydrochloride (abbreviated as Ro.HCl) and rotigotine hydrophosphate (abbreviated as rotigotine.H3PO4 or Ro.H3PO4) have been investigated as a function of pH in a number of solvents (table.1). Ro.H3PO4 was dissolved in the indicated buffer upon which the pH of the formed solution was adjusted to the target value by addition of sodium hydroxide solution. […] The drug was assayed by HPLC analysis in the filtered solution.
• Column: Merck Superspher 60 RP select B, length: 7.5 cm, column internal diameter: 4 mm, particle size: 5 μm • Mobile phase: 60% (v/v) water, 40% (v/v) acetonitrile 0.05% (v/v) methanesulfonic acid • Flow: 1.0 ml/min • Injection volume: collected fractions: 50 μl, diluted donor solutions: 4 μl • Column temperature: ambient • Detection: fluorescence, λex=276 nm, λem=302 nm

SMILES: CCCN(CCc1cccs1)[C@H]1CCc2c(O)cccc2C1 [rotigotine, (−)-5,6,7,8-tetrahydro-6-[propyl-[2-(2-thienyl)ethyl]-amino]-1-naphthalenol]
- maximum plasma concentration (Cmax) [1]: 0.215 ng/mL
- time of maximum plasma concentration [1]: 16 h

SMILES: CCCN(CCc1cccs1)[C@H]1CCc2c(O)cccc2C1 [rotigotine.HCl, rotigotine hydrochloride]
- average drug plasma levels [2]: around 0.15 ng/mL
- effect of addition of NaCl on solubility ([3]; 68 mM NaCl, results by Nugroho): reduced tremendously
- Solubility ([3]; pH 4, 68 mM NaCl): 6.75 µmol/mL
- Solubility ([3]; pH 4, no NaCl): 24.39^a,b μmol/ml
- Solubility ([3]; pH 5, 68 mM NaCl): 6.35 µmol/mL
- maximum solubility ([3]; pH 5, in the presence of 0.07 molar NaCl, previous attempts): 6.3 mM
- Solubility ([3]; pH 5, no NaCl, hydrochloride): 22.4 µmol/mL
- Solubility ([3]; pH 5, no NaCl, listed as Rotigotine•HCl, hydrochloride): 22.45^a,b μmol/ml
- Solubility ([3]; pH 6, 68 mM NaCl): 6.52 µmol/mL
- Solubility ([3]; pH 6, no NaCl): 15.87^b μmol/ml
- maximum iontophoretic flux [4]: 80.2±14.4 nmol·cm^−2·h^−1
- transport number [4]: 0.4%

- steady state flux ± s.d., passive stage ([5]; human, 6 h, 1.24 mg/ml, pH 6): 4.1 ± 1.9 μg/cm^2/h
- steady state flux ± s.d., passive stage ([5]; human, 6 h, 1.28 mg/ml, pH 5): 0.5 ± 0.2 μg/cm^2/h
- steady state flux ± s.d., passive stage ([5]; human, 6 h, 1.42 mg/ml, pH 6): 3.2 ± 0.2 μg/cm^2/h
- steady state flux ± s.d., passive stage ([5]; human, 6 h, 1.46 mg/ml, pH 5): 0.9 ± 0.3 μg/cm^2/h
- steady state flux ± s.d., passive stage ([5]; human, 6 h, 3.11 mg/ml, pH 5): 1.0 ± 0.1 μg/cm^2/h
- steady state flux ± s.d., passive stage ([5]; human, 6 h, 4.13 mg/ml, pH 6): 9.3 ± 0.9 μg/cm^2/h
- steady state flux ± s.d., passive stage ([5]; human, 6 h, 4.3 mg/ml, pH 6): 12.3 ± 0.9 μg/cm^2/h
- steady state flux ± s.d., passive stage ([5]; human, 6 h, 6.95 mg/ml, pH 5): 2.3 ± 0.5 μg/cm^2/h
- steady state flux ± s.d., passive stage ([5]; human, 6 h, 9.88 mg/ml, pH 5.5): 7.7 ± 0.5 μg/cm^2/h
- steady state flux ± s.d., passive stage ([5]; human, 6 h, 15.09 mg/ml, pH 5): 3.6 ± 0.5 μg/cm^2/h
- Flux ([5]; human, 6 h, 31.3 mM, pH 5.5): 24.4±1.9 nmol·cm^−2·h^−1
- maximum passive flux close to saturation in the donor phase ([5]; human, 6 h, pH 5): 10.8±1.9 nmol·cm^−2·h^−1
- maximum passive flux close to saturation in the donor phase ([5]; human, 6 h, pH 6): 24.9 nmol·cm^−2·h^−1
- steady state flux ± s.d., iontophoresis stage ([5]; human, 1.24 mg/ml, pH 6): 26.4 ± 1.3 μg/cm^2/h
- steady state flux ± s.d., iontophoresis stage ([5]; human, 1.28 mg/ml, pH 5): 20.0 ± 4.9 μg/cm^2/h
- Mean steady state flux ± sd ([5]; human, 1.4 mg/ml, pH 5): 22.1 ± 2.5 μg/cm^2/h
- steady state flux ± s.d., iontophoresis stage ([5]; human, 1.42 mg/ml, pH 6): 25.1 ± 3.3 μg/cm^2/h
- steady state flux ± s.d., iontophoresis stage ([5]; human, 1.46 mg/ml, pH 5): 22.1 ± 2.5 μg/cm^2/h
- Mean steady state flux ± sd ([5]; human, 3 mg/ml, pH 5): 26.0 ± 2.1 μg/cm^2/h
- steady state flux ± s.d., iontophoresis stage ([5]; human, 3.11 mg/ml, pH 5): 26.0 ± 2.1 μg/cm^2/h
- steady state flux ± s.d., iontophoresis stage ([5]; human, 4.13 mg/ml, pH 6): 43.0 ± 2.6 μg/cm^2/h
- steady state flux ± s.d., iontophoresis stage ([5]; human, 4.3 mg/ml, pH 6): 47.1 ± 1.8 μg/cm^2/h
- steady state flux ± s.d., iontophoresis stage ([5]; human, 6.95 mg/ml, pH 5): 33.7 ± 4.7 μg/cm^2/h
- steady state flux ± s.d., iontophoresis stage ([5]; human, 9.88 mg/ml, pH 5.5): 47.9 ± 3.1 μg/cm^2/h
- steady state flux ± s.d., iontophoresis stage ([5]; human, 15.09 mg/ml, pH 5): 41.5 ± 3.4 μg/cm^2/h
- decrease in steady state flux resulting from the decrease in donor concentration ([5]; human, 24 h, pH 5): 10%
- increase in maximum flux compared to rotigotine.HCl ([5]; human, pH 5): 170%
- maximum iontophoretic flux ([5]; human, pH 5): 135.8±12.5 nmol·cm^−2·h^−1
- solubility at 48 h ([6]; aqueous buffer, pH range of about 4 to 5.5, read-out: water solubility): 34 to 83 mM
- solubility at 48 h ([6]; pH 4, aqueous buffer, pH 4, 68 mM NaCl, n = 2-3, read-out: Solubility): 80.1 mM
- solubility at 48 h ([6]; pH 4, aqueous buffer, pH 4, no NaCl, n = 2-3, read-out: Solubility): 83.5 mM
- solubility at 48 h ([6]; pH 5, aqueous buffer, pH 5, 68 mM NaCl, n = 2-3, read-out: Solubility): 43 mM
- solubility at 48 h ([6]; pH 5, aqueous buffer, pH 5, no NaCl, n = 2-3, read-out: Solubility): 41.9 mM
- solubility at 48 h ([6]; pH 6, aqueous buffer, pH 6, 68 mM NaCl, n = 2-3, read-out: Solubility): 14.4 mM
- solubility at 48 h ([6]; pH 6, aqueous buffer, pH 6, no NaCl, n = 2-3, read-out: Solubility): 15.7 mM
- solubility fold higher compared to rotigotine-HCl ([6]; pH 4): 12 fold
- solubility fold higher compared to rotigotine-HCl ([6]; pH 5): 7 fold
- solubility fold higher compared to rotigotine-HCl ([6]; pH 6): 2 fold
- effect of addition of NaCl on solubility ([6]; selected pH values 4, 5, 6, 68 mM NaCl, 2-way ANOVA p>0.05): did not affect significantly
SMILES: CCCN(CCc1cccs1)[C@H]1CCc2c(O)cccc2C1.O=P(O)(O)O [rotigotine.H3PO4, rotigotine dihydrogen phosphate]
- time to reach steady state flux after current application ([5]; citric buffer pH 5, FIG. 3): within four hours
- time to reach steady state of passive transport ([5]; no current, prior to iontophoresis): ≤ 6 h
- time to reach steady state flux after current application ([5]; pH 5.5, 31.3 mM, 68 mM NaCl, stepwise increase of current density): ≤ 6 h
